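Interpolation was linear, between the two tested concentrations surrounding the appropriate level; five concentrations were tested over 48 hours in 96-well plates. GI50 marks 50% less growth.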 The source made the active and inactive calls. Rule as the data show it: active = GI50 up to about 1.1 µM and inactive = higher.
Columns and labels:
Test in all cases: DTP human tumour cell line panel, 48 h
[1] = test system: SNB-19
[2] = test system: NCI-H522
[3] = test system: HT-29
[4] = test system: M14
[5] = test system: SF-539
[6] = test system: UACC-257
[7] = test system: U-251
[8] = test system: NCI-H226
[9] = test system: Malme-3M
[10] = test system: MDA-MB-231
[11] = test system: NCI-H23
[12] = test system: OVCAR-8
[13] = test system: Hs-578T
[14] = test system: HL-60
[15] = test system: OVCAR-5
[16] = test system: DU-145
[17] = test system: UO-31
[18] = test system: SW-620
[19] = test system: COLO 205

Measured: GI50

O=C1CCCCN1C(=O)c1ccc([N+](=O)[O-])cc1
inactive: [1] > 100 µM | [2] > 100 µM | [3] > 100 µM | [4] > 100 µM | [5] > 100 µM | [6] > 100 µM | [7] > 100 µM | [8] > 100 µM | [9] > 100 µM | [10] > 100 µM | [11] > 100 µM | [12] > 100 µM | [13] > 100 µM | [14] > 100 µM | [15] > 100 µM | [16] > 100 µM | [17] > 100 µM | [18] > 100 µM

c1ccc2c(c1)N=c1cc3c(cc1N2)=NC12CCCCC1CC1=C(CCCC1)N32 (centres undefined)
inactive: [1] 5.25 µM | [2] 4.19 µM | [3] 3.18 µM | [4] 2.52 µM | [5] 3.4 µM | [6] 2.03 µM | [7] 5.16 µM | [8] 2.31 µM | [19] 1.79 µM | [9] 2.17 µM | [10] 4.16 µM | [11] 4.56 µM | [12] 3.21 µM | [13] 3.82 µM | [14] 3.04 µM | [15] 5.36 µM | [16] > 10 µM | [18] 5.47 µM

CC1(C)N=C(/C=N/O)C(C)(C)N1O
inactive: [1] 87.3 µM | [2] > 100 µM | [3] > 100 µM | [4] > 100 µM | [5] > 100 µM | [7] > 100 µM | [8] > 100 µM | [19] > 100 µM | [9] > 100 µM | [10] > 100 µM | [11] > 100 µM | [12] > 100 µM | [13] > 100 µM | [14] > 100 µM | [15] > 100 µM | [16] > 100 µM | [17] 81.3 µM | [18] > 100 µM

O=C1/C(=C/c2ccc(O)cc2)NC(=S)N1CN1CCCCC1
inactive: [1] 89.5 µM | [2] 55.3 µM | [3] 43 µM | [4] 59.2 µM | [7] 49.8 µM | [8] 78.3 µM | [19] 21 µM | [9] > 100 µM | [10] > 100 µM | [11] > 100 µM | [12] 53.5 µM | [13] 85.5 µM | [14] 71.6 µM | [15] > 100 µM | [16] 57.1 µM | [17] 71.4 µM | [18] 36.6 µM

CC1(C)CC(=O)c2c(nc3ccc4ccccc4c3c2-c2ccc(NC(=O)CCCCCCCCC(=O)Nc3ccc(-c4c5c(nc6ccc7ccccc7c46)CC(C)(C)CC5=O)cc3)cc2)C1
inactive: [1] > 100 µM | [3] > 100 µM | [4] > 100 µM | [5] > 100 µM | [6] > 100 µM | [7] > 100 µM | [8] > 100 µM | [19] > 100 µM | [10] > 100 µM | [11] > 100 µM | [12] > 100 µM | [13] > 100 µM | [14] > 100 µM | [15] > 100 µM | [16] > 100 µM | [17] > 100 µM | [18] > 100 µM

CC(/C=C/c1ccc([N+](=O)[O-])o1)=N/N1CC(CN2CCOCC2)OC1=O (centres undefined)
inactive: [1] 48.1 µM | [3] 31.4 µM | [4] 17.3 µM | [5] 22.9 µM | [6] 17.5 µM | [7] 28.5 µM | [8] 21.4 µM | [19] 16.3 µM | [9] 14.7 µM | [10] 23.6 µM | [11] 20.7 µM | [12] 16.5 µM | [13] 44.8 µM | [14] 25.3 µM | [15] 47.3 µM | [16] 19.9 µM | [17] 21.3 µM | [18] 30.2 µM

CC1=NN(c2cccc(Cl)c2)C(=N/c2nc3ccccc3s2)/C1=C\c1cccs1
inactive: [2] 27.9 µM | [3] 23.4 µM | [4] 70.1 µM | [5] 42 µM | [6] 37.4 µM | [7] 24 µM | [8] 36.4 µM | [10] 38.9 µM | [11] 22.5 µM | [12] 48.3 µM | [13] 26.1 µM | [14] 14.3 µM | [15] > 100 µM | [16] 44.4 µM | [17] 60.8 µM | [18] 54.2 µM

C[C@H]1CC[C@@H]2[C@@H](C)C[C@H]3[C@@H]4C(C)(C)OC(=O)[C@]4(C)C(=O)[C@@]23C1=O
inactive: [1] > 100 µM | [2] 50.7 µM | [3] > 100 µM | [4] > 100 µM | [5] > 100 µM | [6] > 100 µM | [8] > 100 µM | [19] > 100 µM | [9] > 100 µM | [10] 42.5 µM | [11] > 100 µM | [12] > 100 µM | [13] > 100 µM | [14] > 100 µM | [15] > 100 µM | [16] > 100 µM | [18] > 100 µM

Source: ChEMBL document CHEMBL1201862, “PubChem BioAssay data set” (2004)
